Results taken from ChEMBL document CHEMBL1129938, “Synthesis and biological evaluation of nonclassical 2,4-diamino-5-methylpyrido[2,3-d]pyrimidines with novel side chain substituents as potential inhibitors of dihydrofolate reductases” (J Med Chem, 1997).

Assays:
[1] = biological target: T1, Bifunctional dihydrofolate reductase-thymidylate synthase (Toxoplasma gondii, UniProt Q07422)
T1 sequence (Q07422 whole entry): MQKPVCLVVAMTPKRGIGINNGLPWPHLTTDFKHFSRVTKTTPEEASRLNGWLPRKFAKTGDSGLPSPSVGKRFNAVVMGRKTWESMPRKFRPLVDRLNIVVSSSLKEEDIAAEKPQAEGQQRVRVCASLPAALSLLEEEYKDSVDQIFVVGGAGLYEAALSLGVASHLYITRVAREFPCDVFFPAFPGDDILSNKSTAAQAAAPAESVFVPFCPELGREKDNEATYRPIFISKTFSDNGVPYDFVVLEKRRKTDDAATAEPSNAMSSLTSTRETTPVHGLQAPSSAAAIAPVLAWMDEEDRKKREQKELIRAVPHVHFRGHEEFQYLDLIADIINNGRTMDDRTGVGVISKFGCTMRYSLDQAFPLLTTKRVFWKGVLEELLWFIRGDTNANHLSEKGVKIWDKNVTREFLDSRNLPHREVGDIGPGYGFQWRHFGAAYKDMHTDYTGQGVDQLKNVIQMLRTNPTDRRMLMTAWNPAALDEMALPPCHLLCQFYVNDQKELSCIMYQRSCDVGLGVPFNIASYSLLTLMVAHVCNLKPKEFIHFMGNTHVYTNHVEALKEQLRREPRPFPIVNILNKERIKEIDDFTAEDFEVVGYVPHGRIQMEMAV
Description: Inhibition of Dihydrofolate Reductase of Toxoplasma gondii.

[2] = biological target: T2, Dihydrofolate reductase (Rattus norvegicus, UniProt Q920D2)
T2 sequence (Q920D2 whole entry): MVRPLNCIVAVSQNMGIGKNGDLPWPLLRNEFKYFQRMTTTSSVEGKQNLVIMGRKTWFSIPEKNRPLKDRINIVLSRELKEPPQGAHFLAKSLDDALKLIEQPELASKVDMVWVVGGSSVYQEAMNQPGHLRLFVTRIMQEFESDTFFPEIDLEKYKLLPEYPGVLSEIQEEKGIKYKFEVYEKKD
Description: Inhibition of Dihydrofolate Reductase of Rat Liver.

[3] = biological target: T3, Dihydrofolate reductase (Pneumocystis carinii, UniProt P16184)
T3 sequence (P16184 whole entry): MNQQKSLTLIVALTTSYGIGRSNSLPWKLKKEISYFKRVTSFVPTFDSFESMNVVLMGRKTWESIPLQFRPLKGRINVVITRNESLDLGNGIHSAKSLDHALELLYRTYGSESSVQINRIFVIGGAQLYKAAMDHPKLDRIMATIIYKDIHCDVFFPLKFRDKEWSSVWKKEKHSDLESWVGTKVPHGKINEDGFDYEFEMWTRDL
Description: Inhibition of Dihydrofolate Reductase of Pneumocystis carinii.

[4] = tested on: CHO; assay: Cell culture inhibition was assessed by measuring incorporation of [3H]uracil into Toxoplasma gondii cells (CHO cell line); assay type: functional, cell-based; settings: Cricetulus griseus
[5] = Partition coefficient (logP); assay type: physicochemical; settings: octanol/water
[6] = Selectivity ratio of Toxoplasma gondii cell culture to the T. gondii (tg) Dihydrofolate Reductase; assay type: functional

IC50 [2] | IC50 [3] | Structure (SMILES) | IC50 [1] | IC50 [4] | logP [5] | Selectivity ratio [6]
0.15 µM | 0.29 µM | COc1cccc2c1CCN2Cc1cnc2nc(N)nc(N)c2c1C | 0.048 µM | – | – | –
0.23 µM | 0.41 µM | COc1cc2c(cc1OC)N(Cc1cnc3nc(N)nc(N)c3c1C)CC2 | 0.049 µM | 25.1 µM | 2.33 | 512
0.17 µM | 0.25 µM | COc1ccc2c(c1)CCN2Cc1cnc2nc(N)nc(N)c2c1C | 0.057 µM | – | – | –

The remaining lines, values behind:

Structure (SMILES) | IC50 [2] | IC50 [3] | IC50 [1] | IC50 [4] | logP [5] | Selectivity ratio [6]
COc1cc(NCc2cnc3nc(N)nc(N)c3c2C)c(-n2cccc2)cc1OC | 3.5 µM | – | 0.6 µM | – | – | –
COc1cc2c(cc1OC)CN(Cc1cnc3nc(N)nc(N)c3c1C)CC2 | 0.13 µM | 0.85 µM | 0.11 µM | – | – | –
COc1ccc2c(ccn2Cc2cnc3nc(N)nc(N)c3c2C)c1 | 0.47 µM | 0.57 µM | 0.077 µM | 1 µM | 3.07 | 13
COc1cc(-n2cccc2)c(OC)cc1NCc1cnc2nc(N)nc(N)c2c1C | 0.23 µM | 0.35 µM | 0.033 µM | – | – | –
Cc1c(C)c(-n2cccc2)c(C)c(C)c1NCc1cnc2nc(N)nc(N)c2c1C | 0.17 µM | 0.62 µM | 0.075 µM | – | – | –
COc1ccc(-c2ccccc2)cc1NCc1cnc2nc(N)nc(N)c2c1C | 0.44 µM | – | 0.068 µM | – | 4.77 | –
